Measured values from ChEMBL document CHEMBL5126603, “Discovery of Clinical Candidate CHF-6366: A Novel Super-soft Dual Pharmacology Muscarinic Antagonist and β2 Agonist (MABA) for the Inhaled Treatment of Respiratory Diseases” (J Med Chem, 2022).

Experiments:
Trachea [1] = experiment: (§1) Bifunctional antagonist activity at muscarinic M3 receptor /agonist activity at beta-2 adrenoceptor in Dunkin-Hartley guinea pig trachea assessed as inhibition of acetylcholine-induced bronchoconstriction at 1 nmol/Kg, IT(Intratracheal) measured after 5 mins by Konzett-Roessler methodology relative to control; assay type: functional; settings: Cavia porcellus
[2] = In vivo antagonist activity at muscarinic M3 receptor in Dunkin-Hartley guinea pig trachea assessed as inhibition of acetylcholine induced bronchoconstriction at 1 nmol/Kg, IT(Intratracheal) measured after 1 hr in presence of ICI-118551 by Konzett-Roessler methodology relative to control; assay type: functional; settings: Cavia porcellus
[3] = Metabolic stability in human lung S9 fraction assessed as half life at 1 uM measured after 0 to 60 mins in presence of NADPH by LC-MS/MS analysis; assay type: ADME, subcellular; settings: time 0-60 min
Trachea [4] = experiment: as §1, with “0.3” for “1”, “30” for “5”; assay type: functional; settings: Cavia porcellus, 0.5 h
[5] = Efflux ratio of apparent permeability from basolateral to apical side over apical to basolateral side in human Caco-2 cells at 10 uM and measured after 2 hrs by LC-MS/MS analysis; assay type: ADME, cell-based
Trachea [6] = experiment: as §1, with “15” for “5”; assay type: functional; settings: Cavia porcellus, 0.25 h
[7] = Metabolic stability in Dunkin-Hartley guinea pig hepatocytes assessed as clearance at 1 uM measured per 10^6 cells and incubated upto 90 mins by LC-MS/MS analysis; assay type: ADME, cell-based, Cavia porcellus, Hepatocyte; settings: read-out: CLH
Trachea [8] = experiment: as §1, with “0.1” for “1”; assay type: functional; settings: Cavia porcellus
[9] = Apparent permeability across basolateral to apical side in human Caco-2 cells at 10 uM and measured after 2 hrs by LC-MS/MS analysis; assay type: ADME, cell-based
[10] = Mutagenicity in Escherichia coli assessed as induction of reverse mutation by Ames test; assay type: toxicity
[11] = Metabolic stability in human hepatocytes assessed as clearance at 1 uM measured per 10^6 cells and incubated upto 90 mins by LC-MS/MS analysis; assay type: ADME, cell-based, Hepatocyte; settings: read-out: CLH
[12] = AUClast in Dunkin-Hartley guinea pig lung at 500 nmol/Kg, IT(Intratracheal) measured after 72 hrs by LC/MS-MS analysis; assay type: ADME, tissue-based, Cavia porcellus; settings: in vivo, inhaled_or_intranasal
[13] = Metabolic stability in rat liver microsomes assessed as clearance at 1 uM measured per mg protein incubated upto 60 mins in presence of NADPH by LC-MS/MS analysis; assay type: ADME, Microsome; settings: read-out: CLH
Trachea [14] = experiment: as §1, with “0.1” for “1”, “30” for “5”; assay type: functional; settings: Cavia porcellus, 0.5 h
Trachea [15] = experiment: In vivo bifunctional antagonist activity at muscarinic M3 receptor /agonist activity at beta-2 adrenoceptor in Dunkin-Hartley guinea pig trachea assessed as time duration for inhibition of carbachol induced contraction measured […]; assay type: functional, Cavia porcellus
[16] = Metabolic stability in rat hepatocytes assessed as clearance at 1 uM measured per 10^6 cells and incubated upto 90 mins by LC-MS/MS analysis; assay type: ADME, cell-based, Hepatocyte; settings: read-out: CLH
[17] = Tmax in Dunkin-Hartley guinea pig lung at 500 nmol/Kg, IT(Intratracheal) measured after 72 hrs by LC/MS-MS analysis; assay type: ADME, tissue-based, Cavia porcellus; settings: inhaled or intranasal
[18] = In vivo antagonist activity at muscarinic M3 receptor in Dunkin-Hartley guinea pig trachea assessed as inhibition of acetylcholine induced bronchoconstriction at 0.3 nmol/Kg, IT(Intratracheal) measured after 24 hr in presence of ICI-118551 by Konzett-Roessler methodology relative to control; assay type: functional; settings: Cavia porcellus
[19] = Metabolic stability in human liver microsomes assessed as clearance at 1 uM measured per mg protein incubated upto 60 mins in presence of NADPH by LC-MS/MS analysis; assay type: ADME, Microsome; settings: read-out: CLH
[20] = Tmax in Dunkin-Hartley guinea pig plasma at 500 nmol/Kg, IT(Intratracheal) measured after 72 hrs by LC/MS-MS analysis; assay type: ADME, cell-free, Cavia porcellus; settings: inhaled or intranasal

In the case of `Cn1nc(C(=O)OCCCCNC[C@H](O)c2ccc(O)c3[nH]c(=O)ccc23)cc1COc1cccc([C@@H](NC(=O)O[C@H]2CN3CCC2CC3)c2ccccc2)c1`, the inhibition in vivo at 0.001 µmol/kg (Trachea [1]) was 90.1%, the inhibition in vivo at 0.001 µmol/kg [2] was 84.1% and the half-life at 1 µM [3] was over 120 min. For the same molecule, the inhibition in vivo at 0.0003 µmol/kg (Trachea [4]) was 65.9%, the efflux ratio at 2 h, 10 µM [5] was 0.7 and the inhibition in vivo at 0.001 µmol/kg (Trachea [6]) was 91.3%. The hepatocyte CLint at 1 µM [7] was 37 µL/min/1e6 cells, the inhibition in vivo at 0.0001 µmol/kg (Trachea [8]) was 9.7% and the Papp B→A at 2 h, 10 µM [9] was 1.5 ×10⁻⁶ cm/s. The Activity [10] was “Non-Toxic”, the hepatocyte CLint at 1 µM [11] was 33 µL/min/1e6 cells and the AUClast [12] was 460361 ng·h/g. It also gave a microsomal CLint at 1 µM [13] of 37 µL/min/mg, an inhibition in vivo at 0.0001 µmol/kg (Trachea [14]) of 33.1% and a Time (Trachea [15]) of over 225 min. For the same molecule, the hepatocyte CLint at 1 µM [16] was 32 µL/min/1e6 cells, the Tmax [17] was 4.98 min and the inhibition in vivo at 0.0003 µmol/kg [18] was 30.1%. The microsomal CLint at 1 µM [19] was 14 µL/min/mg and the Tmax [20] was 4.98 min.
